The values below come from ChEMBL document CHEMBL1123680, “The influence of physicochemical parameters on the biliary excretion of a series of nitroimidazoles” (J Med Chem, 1987).

Broadly, the logP is a log measure of how a compound divides between an organic and an aqueous phase. Low readings indicate lower lipophilicity, high ones higher lipophilicity.

SMILES strings stand for the structures.

Series [1] in a line: Percent biliary excretion property by administering intravenously to rats was reported as amount of unchanged form of compound detected in bile samples collected at 0-2 hr after the treatment. The note with it: rat, iv.
Series [2] is described as follows: Percent biliary excretion property by administering intravenously to rats was reported as amount of unchanged form of compound detected in bile samples collected at 0-6 hr after the treatment. Conditions: rat, iv.
The nature of series [3]: Percent biliary excretion property by administering intravenously to rats was reported as amount of unchanged form of compound detected in bile samples collected at 0-4 hr after the treatment. The note with it: rat, iv.
Series [4] can be described thus: Percent biliary excretion property by administering intravenously to rats was reported as amount of unchanged form of compound detected in bile samples collected at 0-1 hr after the treatment. The note with it: rat, iv.
A short description of series [5]: Percent biliary excretion property by administering intravenously to rats was reported as amount of unchanged form of compound detected in bile samples collected at 0-5 hr after the treatment. Conditions: rat, iv.
Series [6] in a line: Percent biliary excretion property by administering intravenously to rats was reported as amount of unchanged form of compound detected in bile samples collected at 0-3 hr after the treatment. The note with it: rat, iv.
The nature of series [7]: Partition coefficient (logP). Conditions: octanol/water.

As for `COC(=S)NCCn1c([N+](=O)[O-])cnc1C` [CARNIDAZOLE], the dose excreted in series [1] came to 3.43%; in series [2], 8.94%; in series [3], 7%; in series [4] it was 1.91%; in series [5] it was 8.42%; in series [6], 5.11%.
In the case of `O=[N+]([O-])c1cncn1CCN1CCOCC1` [NIMORAZOLE], the dose excreted in series [1] worked out at 5.25%; in series [2] it was 11.8%; in series [3], 8.71%; in series [4], 3.42%; in series [5] it was 10.7%; in series [6] it was 6.92%.
Consider `Cc1ncc([N+](=O)[O-])n1CCO` [METRONIDAZOLE], for which the dose excreted in series [1] came to 12.5%; in series [2], 24.6%; in series [3], 19.7%; in series [4], 6.77%; in series [5] it was 22.3%; in series [6], 16.8%.
For the compound `Cn1c([N+](=O)[O-])cnc1/C=C/c1ccnc(N)n1` [AZANIDAZOLE], the dose excreted in series [1] came to 21.1%; in series [2] it was 33.1%; in series [3] it was 28.4%; in series [4], 14.4%; in series [5] it was 30.6%; in series [6] it was 25%.
Turning to `CCS(=O)(=O)CCn1c([N+](=O)[O-])cnc1C` [TINIDAZOLE], the dose excreted in series [1] turned out to be 3.47%; in series [2] it was 10.5%; in series [3] it was 7.58%; in series [4] it was 1.99%; in series [5], 8.81%; in series [6] it was 5.25%.
Turning to `Cc1ncc([N+](=O)[O-])n1CC(O)CCl` (stereo not drawn) [ORNIDAZOLE], the dose excreted came out at 7.33% in series [1]; 14.7% in series [2]; 12.3% in series [3]; 1.68% in series [4]; 13.5% in series [5]; 10.6% in series [6].
As for `Cn1c([N+](=O)[O-])cnc1C=O`, the dose excreted in series [1] is 19.2%; in series [2] it was 32%; in series [3], 29.2%; in series [4] it was 13%; in series [5], 31.1%; in series [6], 25%. The logP in series [7] is -0.69.
`Cn1c([N+](=O)[O-])cnc1COC(N)=O` [RONIDAZOLE]: the dose excreted in series [1] turned out to be 6.96%; in series [2], 19.7%; in series [3], 15.5%; in series [4], 4%; in series [5] it was 16.2%; in series [6], 8.88%. Moreover, the log partition coefficient (logP) in series [7] was -0.38.
As to `CC(C)c1ncc([N+](=O)[O-])n1C` [IPRONIDAZOLE], the dose excreted in series [1] turned out to be 5.37%; in series [2], 14%; in series [3], 11.7%; in series [4] it was 2.99%; in series [5] it was 14%; in series [6], 9.6%.
Turning to `Cn1c([N+](=O)[O-])cnc1CO`, the dose excreted stood at 23.3% in series [1]; 37.8% in series [2]; 34.6% in series [3]; 16.7% in series [4]; 34.6% in series [5]; 29.6% in series [6].
On to `O=[N+]([O-])c1c[nH]cn1`, for which the dose excreted in series [1] was 14.1%; in series [2], 26.2%; in series [3] it was 20.9%; in series [4], 8.71%; in series [5], 24.3%; in series [6], 17.6%.
